{"source": "patent US20100129297A1", "about": "“USE OF AN AQUEOUS GRAPE SEED EXTRACT COMBINED WITH AT LEAST ONE FLUORINE SALT TO COMBAT THE FORMATION OR ACCUMULATION OF DENTAL BIOFILM AND COMPOSITIONS COMPRISING SAID COMBINATION” (priority 2007, published 2010)", "key": {"[1]": {"test_system": "Porphyromonas", "assay": "Preventive action on an experimental buccal biofilm model, Porphyromonas count", "format": "cell-based, Porphyromonas gingivalis ATCC 33277", "conditions": "fluorinol compared with NaF, each combined with grape seed extract", "procedure": "The bacterial strains used are: • Streptococcus mutans ATCC 25175 • Streptococcus sobrinus ATCC 33478 • Porphyromonas gingivalis ATCC 33277\nThese different bacteria, cultivated in their specific medium, are inoculated into 10 mL of universal culture medium FUM (Fluid Universal Medium, composition of the medium in Annex 1), and then incubated in anaerobiosis at 37° C. for 24 hours.\nAfter checking the purity with a microscope, the series of cultures are independently adjusted to OD550 1.0±0.05 (i.e. about 10^7 cells per milliliter) by dilutions with FUM. […]\nSerial dilutions to 1:10 of this cell suspension are carried out until concentrations of 10^−2 and 10^−4 are obtained, and then 50 μL of these dilutions are spread over the 4 specific geloses used: mitis salivarius agar, MRS, wilkins chalgren agar (WCA) and blood geloses. The geloses are then placed in anaerobiosis at 37° C. for 48-72 hours and the then the number of formed colonies for each species is counted. […]\nThe number of colonies formed after 48-72 hours of incubation of the molecules with bacterial biofilms is expressed, after counting, in Colony Forming Units per analyzed Biofilm (or CFU/Biofilm) by the formula:\n[Number of counted colonies×dilution factor (10^2 to 10^4)]/Inoculum volume (0.05 mL) […]"}, "[2]": {"test_system": "glucosyl transferases (GTF)", "assay": "Inhibition of glucosyl transferases (GTF): initial reaction rate, released fructose (DNS test)", "format": "biochemical, Streptococcus sobrinus ATCC 33478", "procedure": "A strain of Streptococcus sobrinus ATCC 33478 is placed in 1 liter of BHI (brain heart infusion) medium enriched in glucose (10 g/L final concentration) in anaerobiosis at 37° C. for 18 hours. This bacterial medium, the pH of which was brought back to 6.5 by means of a NaOH 1N solution, is then centrifuged for 30 minutes at 8,000 rpm at 4° C. The glucosyl transferase, present in the supernatant is concentrated by precipitation with ammonium sulfate. The latter (50% w/saturation v) is gradually added to the supernatant held at 4° C. under stirring for 30 minutes. The mixture is then centrifuged at 8,000 rpm, 4° for 30 minutes. […]\n(§1) The results are expressed as inhibition percentages relatively to control solutions (ultra pure water): • the inhibition percentage of the initial rate of the enzymatic reaction (noted as “fructose” in the following table of results) on the one hand • the inhibition percentage of formation of insoluble glucan produced after 24 hours of incubation at 37° C. […]\nDextran interferes on the whole of the colorimetric methods for assaying proteins, because dextran particles diffract light and generate parasitic absorbance. The amount of glucosyl transferase is therefore measured by its activity under standard conditions. […]"}, "[3]": {"test_system": "glucosyl transferases (GTF)", "assay": "Inhibition of glucosyl transferases (GTF): amount of synthesized insoluble glucan (weighing)", "format": "biochemical, Streptococcus sobrinus ATCC 33478", "conditions": "24 hours at 37° C.", "procedure": "A strain of Streptococcus sobrinus ATCC 33478 is placed in 1 liter of BHI (brain heart infusion) medium enriched in glucose (10 g/L final concentration) in anaerobiosis at 37° C. for 18 hours. This bacterial medium, the pH of which was brought back to 6.5 by means of a NaOH 1N solution, is then centrifuged for 30 minutes at 8,000 rpm at 4° C. The glucosyl transferase, present in the supernatant is concentrated by precipitation with ammonium sulfate. The latter (50% w/saturation v) is gradually added to the supernatant held at 4° C. under stirring for 30 minutes. The mixture is then centrifuged at 8,000 rpm, 4° for 30 minutes. The pellet, rich in glucosyl transferase, is then taken up with phosphate/potassium K2HPO4 buffer (10 mM, pH 10.5), dialyzed (MWC 6-8000; width 14.6 mm) for 16 hours and then frozen at −20° C. This is the solution of purified GTF. […]\nas §1\nThe amount of soluble glucan is measured 24 hours after the beginning of the enzymatic reaction. […]"}}, "data": [{"compound": "F.OCc1cccnc1", "note": "[fluorinol, 3-pyridyl methanol hydrofluoride]", "values": [{"measurement": "effect of potentialization of the grape seed extract on Porphyromonas", "setting": "[1]", "value": "larger than that of NaF"}, {"measurement": "inhibition percentage of the initial enzymatic reaction (fructose)", "setting": "[2]; fluorinol alone 0.68%", "value": 10.3, "unit": "%"}, {"measurement": "inhibition percentage of the initial enzymatic reaction (fructose)", "setting": "[2]; fluorinol alone 1.02%", "value": 20.6, "unit": "%"}, {"measurement": "synthesis of insoluble glucan", "setting": "[3]; fluorinol alone 0.68%", "value": "inefficient"}, {"measurement": "synthesis of insoluble glucan", "setting": "[3]; fluorinol alone 1.02%", "value": "inefficient"}]}]}
